According to patent US8415342B2, “Besifloxacin ophthalmic composition for the treatment or control of infection” (Bausch & Lomb Incorporated, priority 2008, dated 2013):
Converted amounts (≈) assume the structure as drawn. Where two headings read alike, the source gives them in different places.

What was measured:
Format in all cases: cell-based
[1] = tested on: Staphylococcus saprophyticus; experiment: MIC, CLSI broth microdilution, clinical isolates; conditions: Staphylococcus saprophyticus (N = 101)
Streptococcus pyogenes = experiment: MIC, CLSI broth microdilution, clinical isolates; conditions: Streptococcus pyogenes (N = 101)
Klebsiella oxytoca = experiment: MIC, CLSI broth microdilution, clinical isolates; conditions: Klebsiella oxytoca (N = 50)
Morganella morganii = experiment: MIC, CLSI broth microdilution, clinical isolates; conditions: Morganella morganii (N = 51)
Legionella pneumophila = experiment: microbe, parasite or virus in culture
Citrobacter koseri = experiment: MIC, CLSI broth microdilution, clinical isolates; conditions: Citrobacter koseri (N = 100)
Haemophilus influenzae = experiment: MIC, CLSI broth microdilution, clinical isolates; conditions: for MIC50 / MIC90: Haemophilus influenzae
Staphylococcus hominis = experiment: MIC, CLSI broth microdilution, clinical isolates; conditions: Staphylococcus hominis (N = 50)
Staphylococcus warneri = experiment: MIC, CLSI broth microdilution, clinical isolates; conditions: Staphylococcus warneri (N = 50)
[2] = tested on: Staphylococcus lugdunensis; experiment: MIC, CLSI broth microdilution, clinical isolates; conditions: Staphylococcus lugdunensis (N = 15)
Viridans streptococci = experiment: MIC, CLSI broth microdilution, clinical isolates; conditions: Viridans streptococci (N = 156)
[3] = tested on: Staphylococcus epidermidis; experiment: MIC, CLSI broth microdilution, clinical isolates; conditions: for MIC50: Staphylococcus epidermidis
Streptococcus agalactiae = experiment: MIC, CLSI broth microdilution, clinical isolates; conditions: Streptococcus agalactiae (N = 100)
Moraxella catarrhalis = experiment: MIC, CLSI broth microdilution, clinical isolates; conditions: Moraxella catarrhalis (N = 101)
[4] = tested on: Staphylococcus haemolyticus; experiment: MIC, CLSI broth microdilution, clinical isolates; conditions: Staphylococcus haemolyticus (N = 101)
[5] = tested on: Lancefield group C, F, G streptococci; experiment: MIC, CLSI broth microdilution, clinical isolates; conditions: G streptococci (N = 50)
Staphylococcus aureus = experiment: MIC, CLSI broth microdilution, clinical isolates; conditions: for MIC50 / MIC90: Staphylococcus aureus
Streptococcus pneumoniae = experiment: MIC, CLSI broth microdilution, clinical isolates
[6] = tested on: E. coli topoisomerase mutants; experiment: MIC against defined topoisomerase mutants; conditions: Escherichia coli
Description: Furthermore, an experiment was conducted to assess the mechanism of action of besifloxacin in S. pneumoniae, S. aureus, and E. coli via step selections for isolates with decreased susceptibility to besifloxacin, as well as by testing for altered susceptibilities of ciprofloxacin-resistant variants of all three species containing genetically defined mutations in the quinolone resistance determining regions (QRDRs) of structural genes encoding DNA gyrase and topoisomerase IV (Table 2).

[7] = tested on: S. pneumoniae topoisomerase mutants; experiment: MIC against defined topoisomerase mutants; conditions: Streptococcus pneumoniae
[8] = tested on: S. aureus topoisomerase mutants; experiment: MIC against defined topoisomerase mutants; conditions: Staphylococcus aureus
[9] = Haemophilus influenzae (all phenotypes, N = 40)
[10] = Haemophilus influenzae (bla negative, N = 24)
[11] = Haemophilus influenzae (bla positive, N = 16)
[12] = Staphylococcus epidermidis (CNS, N = 6)
[13] = Staphylococcus epidermidis (CS, N = 9)
[14] = Staphylococcus epidermidis (MRSE, N = 9)
[15] = Staphylococcus epidermidis (MSSE, N = 6)
[16] = Staphylococcus epidermidis (all phenotypes, N = 15)
[17] = Staphylococcus aureus (CNS, N = 16)
[18] = Staphylococcus aureus (CS, N = 14)
[19] = Staphylococcus aureus (MSSA, N = 19)
[20] = Staphylococcus aureus (all phenotypes, N = 30)
[21] = MRSA, Staphylococcus aureus (MRSA, N = 11)
[22] = MSSA, Staphylococcus aureus (MSSA, N = 19)
[23] = Streptococcus pneumoniae (PSSP, N = 31)

With `NC[C@H]1O[C@H](O[C@H]2[C@H](O)[C@@H](O[C@H]3O[C@H](CO)[C@@H](O)[C@H](N)[C@H]3O)[C@H](N)C[C@@H]2N)[C@H](N)C[C@@H]1O` [Tobramycin] the “% S” value [1] was 99.0%, the MIC50 [1] was 0.015 µg/mL (≈ 0.0321 µM) and the MIC90 [1] was 0.06 µg/mL (≈ 0.128 µM). For the same molecule, the “MIC Range” value [1] was “≦0.008-32 μg/mL”, the “MIC Range” value (Streptococcus pyogenes) was 4 to 64 µg/mL and the MIC50 (Streptococcus pyogenes; read-out: MIC50) was 16 µg/mL (≈ 34.2 µM). The MIC90 (Streptococcus pyogenes; read-out: MIC90) was 16 µg/mL (≈ 34.2 µM), the “% S” value (Klebsiella oxytoca) was 96.0% and the MIC50 (Klebsiella oxytoca) was 0.5 µg/mL (≈ 1.07 µM). The MIC90 (Klebsiella oxytoca) was 1 µg/mL (≈ 2.14 µM), the “MIC Range” value (Klebsiella oxytoca) was 0.25 to 8 µg/mL and the “% S” value (Morganella morganii) was 90.2%. For the same molecule, the MIC50 (Morganella morganii) was 1 µg/mL (≈ 2.14 µM), the MIC90 (Morganella morganii) was 4 µg/mL (≈ 8.56 µM) and the “MIC Range” value (Morganella morganii) was 0.25 to 32 µg/mL. For the same molecule, the MIC50 (Legionella pneumophila; Legionella pneumophila) was 1 µg/mL (≈ 2.14 µM), the MIC90 (Legionella pneumophila; Legionella pneumophila) was 2 µg/mL (≈ 4.28 µM) and the “MIC Range” value (Legionella pneumophila; Legionella pneumophila (N = 50)) was 0.25 to 4 µg/mL. For the same molecule, the “% S” value (Citrobacter koseri) was 99.0%, the MIC50 (Citrobacter koseri) was 0.5 µg/mL (≈ 1.07 µM) and the MIC90 (Citrobacter koseri) was 1 µg/mL (≈ 2.14 µM). For the same molecule, the “MIC Range” value (Citrobacter koseri) was 0.25 to 16 µg/mL, the “MIC Range” value (Haemophilus influenzae; [9]) was 0.06 to 4 µg/mL and the “MIC Range” value (Haemophilus influenzae; [10]) was 0.06 to 4 µg/mL. For the same molecule, the “MIC Range” value (Haemophilus influenzae; [11]) was 0.5 to 4 µg/mL, the MIC50 (Haemophilus influenzae; [9]) was 2 µg/mL (≈ 4.28 µM) and the MIC90 (Haemophilus influenzae; [9]) was 4 µg/mL (≈ 8.56 µM). For the same molecule, the MIC50 (Haemophilus influenzae; [10]) was 2 µg/mL (≈ 4.28 µM), the MIC90 (Haemophilus influenzae; [10]) was 4 µg/mL (≈ 8.56 µM) and the MIC50 (Haemophilus influenzae; [11]) was 2 µg/mL (≈ 4.28 µM). For the same molecule, the MIC90 (Haemophilus influenzae; [11]) was 2 µg/mL (≈ 4.28 µM), the “% S” value (Staphylococcus hominis) was 32.0% and the MIC50 (Staphylococcus hominis) was 16 µg/mL (≈ 34.2 µM). For the same molecule, the MIC90 (Staphylococcus hominis) was 32 µg/mL (≈ 68.4 µM), the “% S” value (Staphylococcus warneri) was 86.0% and the MIC50 (Staphylococcus warneri) was 0.06 µg/mL (≈ 0.128 µM). The MIC90 (Staphylococcus warneri) was 8 µg/mL (≈ 17.1 µM), the “% S” value [2] was 60.0% and the MIC50 [2] was 0.12 µg/mL (≈ 0.257 µM). For the same molecule, the MIC90 [2] was 32 µg/mL (≈ 68.4 µM), the “MIC Range” value (Viridans streptococci) was 0.5 to 128 µg/mL and the MIC50 (Viridans streptococci; read-out: MIC50) was 16 µg/mL (≈ 34.2 µM). The MIC90 (Viridans streptococci; read-out: MIC90) was 32 µg/mL (≈ 68.4 µM), the “% S” value [3, 12] was 83.3% and the “MIC Range” value [3, 12] was 0.06 to 16 µg/mL. The “% S” value [3, 13] was 88.9%, the “MIC Range” value [3, 13] was “≦0.008-8 μg/mL” and the “% S” value [3, 14] was 77.8%. The “MIC Range” value [3, 14] was 0.03 to 16 µg/mL, the “% S” value [3, 15] was 100.0% and the “MIC Range” value [3, 15] was “≦0.008-0.06 μg/mL”. For the same molecule, the “% S” value [3, 16] was 86.7%, the MIC90 [3, 16] was 8 µg/mL (≈ 17.1 µM) and the “MIC Range” value [3, 16] was “≦0.008-16 μg/mL”. For the same molecule, the MIC50 ([3]; MRSE, Staphylococcus epidermidis (MRSE, N = 9)) was 4 µg/mL (≈ 8.56 µM), the MIC50 [3, 12] was 2 µg/mL (≈ 4.28 µM) and the MIC50 [3, 13] was 0.03 µg/mL (≈ 0.0642 µM). For the same molecule, the MIC50 [3, 15] was 0.03 µg/mL (≈ 0.0642 µM), the MIC50 [3, 16] was 0.06 µg/mL (≈ 0.128 µM) and the MIC50 (Streptococcus agalactiae; read-out: MIC50) was 32 µg/mL (≈ 68.4 µM). The MIC90 (Streptococcus agalactiae; read-out: MIC90) was 64 µg/mL (≈ 137 µM), the MIC50 (Moraxella catarrhalis) was 0.25 µg/mL (≈ 0.535 µM) and the MIC90 (Moraxella catarrhalis) was 0.25 µg/mL (≈ 0.535 µM). For the same molecule, the “MIC Range” value (Moraxella catarrhalis) was 0.03 to 0.5 µg/mL, the “% S” value [4] was 64.4% and the MIC50 [4] was 2 µg/mL (≈ 4.28 µM). For the same molecule, the MIC90 [4] was 32 µg/mL (≈ 68.4 µM), the “MIC Range” value [5] was 2 to 32 µg/mL and the MIC50 ([5]; read-out: MIC50) was 8 µg/mL (≈ 17.1 µM). For the same molecule, the MIC90 ([5]; read-out: MIC90) was 16 µg/mL (≈ 34.2 µM), the “% S” value (Staphylococcus aureus; [17]) was 68.8% and the “% S” value (Staphylococcus aureus; [18]) was 92.9%. For the same molecule, the “MIC Range” value (Staphylococcus aureus; [18]) was 0.12 to 8 µg/mL, the “% S” value (Staphylococcus aureus; Staphylococcus aureus (MRSA, N = 11)) was 54.5% and the “% S” value (Staphylococcus aureus; [19]) was 94.7%. The “MIC Range” value (Staphylococcus aureus; [19]) was 0.12 to 8 µg/mL, the “% S” value (Staphylococcus aureus; [20]) was 80.0% and the MIC50 (Staphylococcus aureus; [21]) was 1 µg/mL (≈ 2.14 µM). For the same molecule, the MIC90 (Staphylococcus aureus; [21]) was over 32 µg/mL, the MIC50 (Staphylococcus aureus; [22]) was 0.25 µg/mL (≈ 0.535 µM) and the MIC90 (Staphylococcus aureus; [22]) was 1 µg/mL (≈ 2.14 µM). It also gave an MIC50 (Staphylococcus aureus; [17]) of 0.5 µg/mL (≈ 1.07 µM), an MIC90 (Staphylococcus aureus; [17]) of over 32 µg/mL and an MIC50 (Staphylococcus aureus; [18]) of 0.25 µg/mL (≈ 0.535 µM). For the same molecule, the MIC90 (Staphylococcus aureus; [18]) was 1 µg/mL (≈ 2.14 µM), the MIC50 (Staphylococcus aureus; [20]) was 0.5 µg/mL (≈ 1.07 µM) and the MIC90 (Staphylococcus aureus; [20]) was over 32 µg/mL. For the same molecule, the “MIC Range” value (Streptococcus pneumoniae; Streptococcus pneumoniae (PISP, N = 2)) was 16 to 32 µg/mL, the “MIC Range” value (Streptococcus pneumoniae; Streptococcus pneumoniae (PRSP, N = 2)) was 16 to 32 µg/mL and the MIC50 (Streptococcus pneumoniae; [23]) was 16 µg/mL (≈ 34.2 µM). The MIC90 (Streptococcus pneumoniae; [23]) was 32 µg/mL (≈ 68.4 µM), the “MIC Range” value (Streptococcus pneumoniae; [23]) was 8 to 32 µg/mL and the “MIC Range” value (Streptococcus pneumoniae; Streptococcus pneumoniae (all phenotypes, N = 35)) was 8 to 32 µg/mL. The MIC50 (Streptococcus pneumoniae; Streptococcus pneumoniae (all phenotypes, N = 35), read-out: MIC50) was 16 µg/mL (≈ 34.2 µM) and the MIC90 (Streptococcus pneumoniae; Streptococcus pneumoniae (all phenotypes, N = 35), read-out: MIC90) was 32 µg/mL (≈ 68.4 µM).

For `O=C(O)c1cn(C2CC2)c2cc(N3CCNCC3)c(F)cc2c1=O` [Ciprofloxacin], the MIC ([6]; E. coli Wild type) was 0.008 µg/mL (≈ 0.0241 µM), the MIC ([6]; E. coli gyrA D87Y (or S83L)) was 0.12 µg/mL (≈ 0.362 µM) and the MIC ([6]; E. coli gyrA S83L + parC S80R) was 4 µg/mL. It also gave an MIC ([6]; E. coli gyrA S83L + parE H445L) of 0.12 µg/mL, an MIC ([6]; E. coli gyrB D426N) of 0.03 µg/mL (≈ 0.0905 µM) and an MIC ([7]; S. pneumoniae parC S79Y) of 8 µg/mL (≈ 24.1 µM). It also gave an MIC ([7]; S. pneumoniae parC S79Y + gyrA S81F) of 64 µg/mL, an MIC ([8]; S. aureus Wild type) of 1 µg/mL (≈ 3.02 µM) and an MIC ([8]; S. aureus parC S80F + gyrA S84L) of 64 µg/mL.
